Laboratory results: US9341616B2, “Sweet taste receptor chimeric proteins and use thereof” (AJINOMOTO CO., INC., priority 2014, dated 2016)
Residues, ends and D or L forms follow the SMILES beside them.

Target: h-mT1R2-481/T1R3mosaicC (UniProt Q8TE23+Q925D8, A537S/A558R/A564V/A568V/A570T/A588V/A645S/A649T/A658V/A698V/A702T/A782V/A793V/A807V/C582S/C678S/D172E/D176A/D217E/E221Q/E530V/E534N/E542M/E548N/E725V/F525Y/F541I/F612A/F622V/F665L/F695L/G696N/G701T/H484Y/H528R/H728R/I481V/I486P/I490V/I510L/I518V/I595M/I617V/I643V/I645L/I692L/I695G/I706V/I740A/I803L/K504M/K555R/K565R/K626T/K714N/K818R/K827G/L521P/L560F/L571I/L578I/L610P/L631F/L636F/L639V/L684P/L688V/L702I/L734M/L735F/L800F/L823M/L825Q/M492I/M616G/M644L/M682V/M690V/M744T/M748V/N203E/N231A/N540G/N541S/N547G/N675D/N721H/P545F/P561R/P564S/P638T/P824S/Q195T/Q536L/Q546K/Q550E/Q555R/Q611L/Q676H/Q757R/Q795R/Q831P/R173L/R498S/R632Q/R667S/S168G/S205G/S228A/S501P/S547N/S550A/S576L/S595F/S610P/S628F/S635P/S637R/S663R/S670G/S679G/S681F/S703N/S717H/S727G/S784D/S804G/T199E/T529S/T542A/T549I/T609V/T629S/T642S/T663I/T694M/T705I/T706G/T716I/T813A/V197A/V198A/V508I/V512P/V557A/V573A/V584A/V585L/V613L/V617M/V673M/V687A/V691A/V694A/V718L/V718M/V723A/V729T/V738A/V741L/V774I/V791M/V805L/V812A/V821L/W599R/W676R/W824R/Y533F/Y615F/Y671F/Y680C/Y769S/Y783H/Y794L)
Details: Table 6; genes h-mT481/T1R3mC (h-mT1R2-481, T1R3mC); HEK293E cells

h-mT1R2-481/T1R3mosaicC, sequence (Q8TE23 with tags, fused parts or gaps with the stated changes limits assumed): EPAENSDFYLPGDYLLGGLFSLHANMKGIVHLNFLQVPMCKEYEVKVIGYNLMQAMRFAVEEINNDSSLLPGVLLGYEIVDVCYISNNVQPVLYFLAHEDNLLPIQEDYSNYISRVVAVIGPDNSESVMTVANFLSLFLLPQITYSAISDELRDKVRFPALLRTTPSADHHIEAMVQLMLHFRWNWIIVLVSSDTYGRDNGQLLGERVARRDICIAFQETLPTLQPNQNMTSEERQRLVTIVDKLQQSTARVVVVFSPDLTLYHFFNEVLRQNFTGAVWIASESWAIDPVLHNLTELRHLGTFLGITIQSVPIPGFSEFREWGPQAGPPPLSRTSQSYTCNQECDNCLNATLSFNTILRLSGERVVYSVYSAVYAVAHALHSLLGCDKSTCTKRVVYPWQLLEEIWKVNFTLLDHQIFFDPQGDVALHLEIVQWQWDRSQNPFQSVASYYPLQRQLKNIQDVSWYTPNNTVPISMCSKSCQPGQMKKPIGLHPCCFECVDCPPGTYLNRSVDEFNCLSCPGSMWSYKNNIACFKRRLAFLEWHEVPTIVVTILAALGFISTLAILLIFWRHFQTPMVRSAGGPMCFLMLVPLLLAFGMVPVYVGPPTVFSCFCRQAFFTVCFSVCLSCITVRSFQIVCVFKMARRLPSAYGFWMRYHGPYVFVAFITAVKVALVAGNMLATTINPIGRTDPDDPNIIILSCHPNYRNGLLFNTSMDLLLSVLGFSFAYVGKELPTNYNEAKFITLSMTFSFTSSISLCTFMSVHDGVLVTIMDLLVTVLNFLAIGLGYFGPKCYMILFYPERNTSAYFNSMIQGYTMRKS
h-mT1R2-481/T1R3mosaicC, sequence (Q925D8 with tags, fused parts or gaps with the stated changes limits assumed): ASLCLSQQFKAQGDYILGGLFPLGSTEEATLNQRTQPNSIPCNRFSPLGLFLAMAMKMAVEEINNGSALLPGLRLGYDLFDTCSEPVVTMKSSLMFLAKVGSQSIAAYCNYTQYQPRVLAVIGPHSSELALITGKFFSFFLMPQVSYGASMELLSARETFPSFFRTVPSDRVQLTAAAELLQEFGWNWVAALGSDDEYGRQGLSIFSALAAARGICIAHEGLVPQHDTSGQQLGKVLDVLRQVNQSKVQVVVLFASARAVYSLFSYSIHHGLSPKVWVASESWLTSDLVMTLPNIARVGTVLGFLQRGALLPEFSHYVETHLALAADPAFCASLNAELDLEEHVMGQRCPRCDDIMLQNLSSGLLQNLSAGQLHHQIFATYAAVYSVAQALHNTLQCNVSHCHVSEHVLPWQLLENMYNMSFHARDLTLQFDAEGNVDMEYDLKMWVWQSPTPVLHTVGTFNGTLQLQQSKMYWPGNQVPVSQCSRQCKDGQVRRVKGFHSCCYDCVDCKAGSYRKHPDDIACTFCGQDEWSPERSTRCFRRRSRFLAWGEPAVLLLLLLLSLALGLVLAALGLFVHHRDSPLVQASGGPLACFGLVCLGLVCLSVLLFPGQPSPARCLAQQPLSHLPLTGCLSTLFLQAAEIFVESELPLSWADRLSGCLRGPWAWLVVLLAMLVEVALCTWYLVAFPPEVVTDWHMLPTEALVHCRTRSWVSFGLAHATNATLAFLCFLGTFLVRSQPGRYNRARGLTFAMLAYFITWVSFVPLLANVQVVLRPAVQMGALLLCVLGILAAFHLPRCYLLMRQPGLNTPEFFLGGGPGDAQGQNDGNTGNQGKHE

SMILES	S/N
COc1ccc(CCC(=O)c2c(O)cc(O[C@@H]3O[C@H](CO)[C@@H](O)[C@H](O)[C@H]3O[C@@H]3O[C@@H](C)[C@H](O)[C@@H](O)[C@H]3O)cc2O)cc1O [NHDC, neohesperidin dihydrochalcone]	3.9
OC[C@H]1O[C@@](CO)(O[C@H]2O[C@H](CO)[C@@H](O)[C@H](O)[C@H]2O)[C@@H](O)[C@@H]1O [Sucrose, sucrose]	3.4
O=C1NS(=O)(=O)c2ccccc21.[Na] [Saccharin Na, sodium saccharin]	4.5
COC(=O)[C@H](Cc1ccccc1)NC(=O)[C@@H](N)CC(=O)O [Aspartame, aspartame] (HELM PEPTIDE1{D.F.[CO[*:1]]}$$$$V2.0)	6.3
COC(=O)[C@H](Cc1ccccc1)NC(=O)[C@H](CC(=O)O)NCCCc1ccc(OC)c(O)c1 [Advantame, advantame]	9.9
CC1=CC(=O)NS(=O)(=O)O1 [Acesulfame K, acesulfame potassium]	3.2
COC(=O)[C@H](Cc1ccccc1)NC(=O)[C@H](CC(=O)O)NCCC(C)(C)C [Neotame, neotame]	8.4
C[C@H](NC(=Nc1ccc(C#N)cc1)NCC(=O)O)c1ccccc1 [SC-45647, [3-[(S)-1-phenylethyl]-2-(4-cyanophenyl)guanidino]acetic acid]	6.1
OC[C@H]1O[C@H](O[C@]2(CCl)O[C@H](CCl)[C@@H](O)[C@@H]2O)[C@H](O)[C@@H](O)[C@H]1Cl [Sucralose, sucralose]	4.8
